The values that follow come from PubChem BioAssay (NCI).

Structures are written as SMILES. “And” between values parts separate entries of the source, which are not always exact repeats. Equal entries are not always repeated.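 Dose response: 5 concentrations. Exposure: 48 h. Format: 96-well plates. Endpoint: linear interpolation; highest concentration if not reached. Here, GI50 denotes the concentration required for 50% inhibition of growth. Definition used: TGI = concentration required for complete inhibition of growth.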 A value given as a limit tells only on which side of the number the result lay.

Assay in all cases: NCI-60 cell line screen, 48 h
Experiment [1] has as its system ACHN renal.
The subject of experiment [2] is DU-145 prostate.
Experiment [3] concerns HCC-2998 colon.
Experiment [4] relates to HOP-62 NSCLC.
Experiment [5] deals with HS 578T breast.
In experiment [6] the test system is M14 melanoma.
Experiment [7] concerns MDA-MB-231 breast.
Experiment [8] deals with MDA-MB-435.
The test system of experiment [9] is SF-295 CNS.
In experiment [10] the test system is SK-OV-3 ovarian.

Consider `COc1cc(OC)cc(-c2ccc(-c3ccc(C(=N)N)cn3)s2)c1`, for which the GI50 in experiment [1] was 1.81 µM; in [2] it was 1.79 µM; in experiment [3] it was 1.84 µM; in experiment [4] it was 1.8 µM; in experiment [5], 1.86 µM; in experiment [6] it was 1.79 µM. Also, the GI50 was 1.79 µM in experiment [7], 1.73 µM in [8], 1.79 µM in experiment [9] and 11.3 µM in [10]. Besides, the TGI was determined as 3.2 µM in [1]; 3.22 µM in experiment [2]; 3.48 µM in experiment [3]; 3.67 µM in experiment [4]; 3.98 µM in [5]; 3.47 µM in experiment [6]. The TGI turned out to be 3.51 µM in experiment [7], 3.15 µM in experiment [8], 3.39 µM in experiment [9] and 26.2 µM in experiment [10].
As for `Cc1ccnc(Nc2ccc([N+](=O)[O-])c(NCCN3CCOCC3)n2)c1`, the GI50 in [1] is 0.00744 µM; in [2], 0.00693 µM and 0.0284 µM; in experiment [3] it was 0.0187 µM and 0.0171 µM; in [4], 0.00657 µM; in experiment [5] it was 0.0277 µM; in [7], 0.0213 µM and 0.0379 µM. Further, the figures for the GI50 in [8], in experiment [9] and in experiment [10] were 0.00233 µM, 0.00355 µM and 0.00804 µM, respectively. In addition, the TGI came out at 40.8 µM in experiment [1]; 14.7 µM in experiment [3]; 71.8 µM in experiment [4]; 22.7 µM in experiment [5]; 45.2 µM in [6]; 48.5 µM in experiment [7]. Also, the results for the TGI in experiment [8], in [9] and in experiment [10] were 0.0068 µM, 29.6 µM and 64.7 µM, respectively.
On to `COc1cc(/C=C\c2cc(OC)c(OC)c(OC)c2)cc(NS(=O)(=O)c2ccc(Cl)cc2)c1OC`, for which the GI50 in experiment [1] was 0.586 µM; in experiment [2], 0.507 µM; in experiment [3] it was 1.98 µM; in experiment [4] it was 0.414 µM; in experiment [5], 0.351 µM; in experiment [6], 0.391 µM. For the same compound, the GI50 in [7] is 1.16 µM; in experiment [8], 0.188 µM; in experiment [9] it was 0.319 µM; in [10], 0.449 µM. Further, the TGI was 29.9 µM in experiment [1]; over 100 µM in [2]; over 100 µM in experiment [3]; over 100 µM in [4]; over 100 µM in [5]; 22.9 µM in experiment [6]. Also, the TGI in [7] was over 100 µM; in experiment [8], 0.44 µM; in experiment [9], 84 µM; in experiment [10] it was over 100 µM.
For `Oc1ccccc1C=Nc1nc(OCc2ccccc2)nc2[nH]ncc12`, the GI50 in [1] was 28 µM; in [2] it was 33.9 µM; in experiment [3], 20.2 µM; in experiment [4], 26.2 µM; in experiment [5], 19.2 µM; in experiment [6], 21.6 µM. Moreover, the GI50 in [7] was 15 µM; in [8], 20.7 µM; in [9], 19.9 µM; in [10], 25.9 µM. Also, the TGI is over 100 µM in experiment [1]; over 100 µM in experiment [2]; 38.1 µM in experiment [3]; 84.8 µM in [4]; 56.9 µM in experiment [5]; 57.7 µM in experiment [6]. Further, the TGI in experiment [7] came out at 37.3 µM; in experiment [8], 44.8 µM; in experiment [9], 39.3 µM; in experiment [10], 55.4 µM.
Turning to `CNCc1ccc(-c2[nH]c3cc(F)cc4c3c2CCNC4=O)cc1`, the GI50 is 18.7 µM in [1]; 16 µM in [2]; 16.5 µM in experiment [3]; 14.9 µM in experiment [4]; 19.5 µM in experiment [5]; 16.6 µM in experiment [6]. Further, the GI50 was 11.1 µM in experiment [7], 16.5 µM in [8], 18.8 µM in [9] and 18.6 µM in [10]. In addition, the TGI is over 58.2 µM in experiment [1]; 32.3 µM in [2]; 35.6 µM in experiment [3]; 43.4 µM in experiment [4]; 67.9 µM in [5]; 32.7 µM in [6]. The TGI turned out to be 33 µM in experiment [7], 36.1 µM in experiment [8], 45.7 µM in experiment [9] and 56 µM in experiment [10].
Regarding `C#CC#CC#CC#CC#CC#CC#CC#CC[C@@H]1OC[C@@H](COC(=O)O[C@@H](C(=O)O[C@H]2C[C@@]3(O)[C@@H](OC(=O)c4ccccc4)[C@@H]4[C@]5(OC(C)=O)CO[C@@H]5C[C@H](O)[C@@]4(C)C(=O)[C@H](OC(C)=O)C(=C2C)C3(C)C)[C@@H](NC(=O)c2ccccc2)c2ccccc2)O1`, the GI50 in [1] was 2.02 µM; in [2], 0.502 µM; in [3], 0.289 µM; in experiment [4] it was 1.13 µM; in experiment [5], 0.239 µM; in experiment [6], 0.165 µM. Besides, the GI50 is 0.65 µM in [7], 0.0394 µM in experiment [8], 0.579 µM in [9] and 0.897 µM in [10]. The TGI in [1] was over 33.3 µM; in experiment [2], over 33.3 µM; in [3], over 17.5 µM; in experiment [4], over 33.3 µM; in experiment [5], over 8.14 µM; in experiment [6], 1.38 µM. The TGI in experiment [7] was over 33.3 µM; in experiment [8], 0.111 µM; in experiment [9], 2.41 µM; in [10], over 33.3 µM.
In the case of `O=c1[nH]c2ccc([N+](=O)[O-])c(Cl)c2c2ccccc12`, the TGI is 18.9 µM in experiment [1]; 11.7 µM in experiment [2]; 23.6 µM in experiment [3]; over 100 µM in [4]; over 100 µM in experiment [5]; over 100 µM in experiment [6]. Further, the TGI in experiment [7] worked out at 23.6 µM; in [8], 7.6 µM; in experiment [9], 9.18 µM; in [10], 4.86 µM.
Turning to `O=NN(CCCl)C(=O)NC1CCCCC1`, the GI50 is 23.2 µM and 82.7 µM in experiment [1]; 34.5 µM and 64.6 µM in experiment [3]; 51.9 µM and 113 µM in experiment [4]; 16.8 µM and 56.8 µM in experiment [6]; 91.7 µM in [9]; 43.1 µM and 149 µM in [10]. Further, the TGI was 57.6 µM and 153 µM and 182 µM in experiment [1]; 132 µM in experiment [2]; 123 µM and 101 µM in experiment [3]; 154 µM and 213 µM in experiment [4]; 104 µM in experiment [5]; 33 µM and 127 µM and 82.8 µM in experiment [6]. Besides, the TGI in experiment [7] is 57 µM; in [8], 102 µM; in [9] it was 118 µM; in [10], 162 µM and 232 µM.
